{"source": "patent US9649266B2", "about": "(priority 2014, dated 2017)", "key": {"enlarged skin pores": {"test_system": "enlarged skin pores", "settings": "0.1% gel on face twice a day, after a month"}, "sebum production": {"test_system": "sebum production", "settings": "for reduction in sebum production (as assessed by the Sebotape): 2% memantine lotion twice daily on back skin, vs pre-treatment or control region; for health of the skin in treatment region: 2% memantine lotion twice daily"}, "acne": {"test_system": "acne", "settings": "0.5% cream on face twice a day, after three months"}, "oily skin": {"test_system": "oily skin", "settings": "1% solution on face twice a day, after a month"}}, "note": "Where two headings read alike, the source gives them in different places.", "data": [{"smiles": "CNC1(C)C2CCC(C2)C1(C)C", "note": "(stereo not shown) [mecamylamine]", "values": [{"measurement": "appearance of skin pores", "setting": "enlarged skin pores", "result": "smaller in diameter"}, {"measurement": "visible unwanted side-effects regarding skin", "setting": "enlarged skin pores", "result": "no other visible unwanted side-effects"}]}, {"smiles": "CC12CC3CC(C)(C1)CC(N)(C3)C2", "note": "[memantine]", "values": [{"measurement": "reduction in sebum production (as assessed by the Sebotape)", "setting": "sebum production; after five days", "result": "> 50", "unit": "%"}, {"measurement": "reduction in sebum production (as assessed by the Sebotape)", "setting": "sebum production; after six days", "result": "> 50", "unit": "%"}, {"measurement": "health of the skin in treatment region", "setting": "sebum production; after five days", "result": "healthy skin"}, {"measurement": "health of the skin in treatment region", "setting": "sebum production; after six days", "result": "healthy skin"}, {"measurement": "appearance of acne", "setting": "acne", "result": "less visible"}, {"measurement": "visible unwanted side-effects regarding skin", "setting": "acne", "result": "no other visible unwanted side-effects"}]}, {"smiles": "OC(CCN1CCCCC1)(c1ccccc1)C1CC2C=CC1C2", "note": "(stereo not shown) [biperiden]", "values": [{"measurement": "appearance of skin oiliness", "setting": "oily skin", "result": "much less oily"}, {"measurement": "visible unwanted side-effects regarding skin", "setting": "oily skin", "result": "no other visible unwanted side-effects"}]}]}
